Experimental data as given in US20240124451A1, “PHTHALAZINE DERIVATIVES USEFUL AS INHIBITORS OF NOD-LIKE RECEPTOR PROTEIN 3” (Merck Sharp & Dohme LLC, priority 2022, published 2024).

Target: T1, NLRP3 inflammasome (Homo sapiens, UniProt Q96P20)
T1 construct: host or cells: THP-1 human monocytic cells, PMA-treated, stimulated with gramicidin
Assay: ASC-SPECK formation in THP-1 cells after gramicidin stimulation (NLRP3 inflammasome activation)
Type: cell-based
Conditions: PMA-treated human monocytic THP-1 cells, compound 1 h before 12.5 ug/ml gramicidin, 3 h, ASC SPECK imaging; read-out: EC50 (nM) for Examples that inhibit NLRP3 inflammasome activation
Experimental: The ability of compounds to inhibit NLRP3 inflammasome activation was determined in vitro by monitoring formation of the ASC-SPECK in human monocytic THP-1 cells after stimulation. THP-1 cells (ATCC catalog #TIB-202) were maintained in complete growth media containing Roswell Park Memorial Institute RPMI (ATCC catalog #30-2001), 10% heat inactivated fetal bovine serum, 1× penicillin/streptomycin and 0.05 mM 2-mercaptoethanol. At the start of the assay, undifferentiated THP-1 cells were plated at a density of 20,000 cells per well in a 384-well plate (Poly-D-lysine coated Cell Carrier Ultra microplate, Perkin Elmer catalog #6057500) in complete growth media supplemented with 10 ng/ml phorbol 12-myristate 13-acetate (PMA; Sigma catalog #P8139), and then incubated overnight. The next day, media was replaced with assay media [RPMI (Gibco catalog #11875-093), 0.01% bovine serum albumin (BSA)]. Compounds were serially diluted in DMSO and then added to wells one hour prior to the addition of 12.5 ug/ml Gramicidin (Enzo Lifescience, catalog #ALX-350-233-M005). All incubations were carried out at 37° C. (5% CO2/95% air). Following a 3-hour treatment with gramicidin, cells are fixed with 4% paraformaldehyde and stored at 4° C. until immunofluorescence staining.
Immunofluorescence staining: Anti-ASC antibody (MBL catalog #D086-3) was desalted and labeled with Alexa 488 antibody labeling kit (Thermo catalog #A20181) prior to use as described below. After fixation, the following steps were carried out at room temperature. Cells were first permeabilized with 0.3% Triton X-100 in phosphate-buffered saline (PBS) for 15 minutes and then incubated in blocking buffer containing 5% goat serum, 0.3% tween-20 and 0.03% sodium azide in PBS for 1 hour. Cells were stained with a mixture of ASC-Alexa 488 antibody (diluted 1:200 in blocking buffer) and nuclear stain DRAQ5 (1:5000 in blocking buffer, Thermo catalog #62251) in blocking buffer for 1 hour. Following a wash with 0.3% Tween-20 in PBS, plates were imaged with an Opera Phenix High Content Screening System. The number of DRAQ5 positive cells containing ASC SPECKS were quantified in each well.
Data analysis: EC50 values were calculated by standard curve-fitting analysis using an internally developed program in TIBCO Spotfire software.

T1 sequence (Q96P20 whole entry): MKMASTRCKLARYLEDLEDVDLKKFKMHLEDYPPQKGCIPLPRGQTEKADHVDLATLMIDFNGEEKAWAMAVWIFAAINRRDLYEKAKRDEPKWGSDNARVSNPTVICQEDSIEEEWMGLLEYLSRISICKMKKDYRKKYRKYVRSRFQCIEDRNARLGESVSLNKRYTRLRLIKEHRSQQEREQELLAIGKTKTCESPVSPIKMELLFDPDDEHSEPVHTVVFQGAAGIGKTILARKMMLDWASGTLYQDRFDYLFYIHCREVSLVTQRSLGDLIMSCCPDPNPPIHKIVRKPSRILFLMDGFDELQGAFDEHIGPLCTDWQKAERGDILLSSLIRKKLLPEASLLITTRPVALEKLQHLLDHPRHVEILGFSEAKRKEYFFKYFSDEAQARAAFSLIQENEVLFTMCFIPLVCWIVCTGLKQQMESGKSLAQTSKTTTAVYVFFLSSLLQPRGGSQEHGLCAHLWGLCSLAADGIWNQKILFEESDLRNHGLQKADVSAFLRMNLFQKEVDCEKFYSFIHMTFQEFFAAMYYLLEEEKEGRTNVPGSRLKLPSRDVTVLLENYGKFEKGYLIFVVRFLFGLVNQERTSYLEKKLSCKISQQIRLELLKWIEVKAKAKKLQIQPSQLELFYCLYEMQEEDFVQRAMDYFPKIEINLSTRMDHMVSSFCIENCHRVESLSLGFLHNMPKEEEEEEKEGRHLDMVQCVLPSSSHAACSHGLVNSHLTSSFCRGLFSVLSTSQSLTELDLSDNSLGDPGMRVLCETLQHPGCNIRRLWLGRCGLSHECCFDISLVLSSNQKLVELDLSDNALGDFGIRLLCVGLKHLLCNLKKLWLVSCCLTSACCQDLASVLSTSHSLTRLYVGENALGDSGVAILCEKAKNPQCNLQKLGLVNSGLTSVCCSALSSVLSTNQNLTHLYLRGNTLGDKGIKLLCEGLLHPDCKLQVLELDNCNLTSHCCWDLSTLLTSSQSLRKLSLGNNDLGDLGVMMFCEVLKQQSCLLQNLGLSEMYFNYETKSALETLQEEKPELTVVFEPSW

Row | SMILES | EC50 [nM]
1 | C[C@]1(O)CCN(c2nnc(-c3ccc(C(F)(F)F)cc3O)c3ccc(C(F)(F)F)nc23)C1 [Example 12, (S)-1-(5-(2-hydroxy-4-(trifluoromethyl)phenyl)-2-(trifluoromethyl)pyrido[2,3-d]pyridazin-8-yl)-3-methylpyrrolidin-3-ol] | 621
2 | C[C@@H]1CN(c2nnc(-c3ccc(C(F)(F)F)cc3O)c3cnncc23)C[C@H](C)[C@]1(C)O [Example 13, (3S,4s,5R)-1-(4-(2-hydroxy-4-(trifluoromethyl)phenyl)pyridazino [4,5-d]pyridazin-1-yl)-3,4,5-trimethylpiperidin-4-ol] | 264
3 | Cc1cccc2c(-c3ccc(C(F)(F)F)cc3O)nnc(N3C[C@@H](C)O[C@@H](C)C3)c12 [Example 14, 2-(4-((cis)-2,6-dimethylmorpholino)-5-methylphthalazin-1-yl)-5-(trifluoromethyl)phenol] | 734
4 | Cc1cccc2c(N3C[C@@H](C)O[C@@H](C)C3)nnc(-c3ccc(C(F)(F)F)cc3O)c12 [Example 15, 2-(4-((cis)-2,6-dimethylmorpholino)-8-methylphthalazin-1-yl)-5-(trifluoromethyl)phenol] | 3680
5 | C[C@@H]1CN(c2nnc(-c3ccc(C(F)(F)F)cc3O)c3cnccc23)C[C@H](C)[C@]1(C)O [Example 17, (3S,4s,5R)-1-(4-(2-hydroxy-4-(trifluoromethyl)phenyl)pyrido[3,4-d]pyridazin-1-yl)-3,4,5-trimethylpiperidin-4-ol] | 201
6 | C[C@@H]1CN(c2nnc(-c3ccc(C(F)(F)F)cc3O)c3cnccc23)C[C@H](C)[C@H]1O [Example 19, (3S,4r,5R)-1-(4-(2-hydroxy-4-(trifluoromethyl)phenyl)pyrido[3,4-d]pyridazin-1-yl)-3,5-dimethylpiperidin-4-ol] | 68
7 | Cc1ccc2c(N3C[C@@H](C)O[C@@H](C)C3)nnc(-c3ccc(C(F)(F)F)cc3O)c2c1 [Example 21, 2-(4-((cis)-2,6-dimethylmorpholino)-7-methylphthalazin-1-yl)-5-(trifluoromethyl)phenol] | 815
8 | C[C@@H]1CN(c2nnc(-c3ccc(C(F)(F)F)cc3O)c3cccnc23)C[C@H](C)[C@]1(C)O [Example 24, (3S,4s,5R)-1-(5-(2-hydroxy-4-(trifluoromethyl)phenyl)pyrido [2,3-d]pyridazin-8-yl)-3,4,5-trimethylpiperidin-4-ol] | 52
9 | C[C@@H]1CN(c2nnc(-c3ccc(C(F)(F)F)cc3O)c3cccnc23)C[C@H](C)S1(=O)=O [Example 26, (cis)-4-(5-(2-hydroxy-4-(trifluoromethyl)phenyl)pyrido [2,3-d]pyridazin-8-yl)-2,6-dimethylthiomorpholine 1,1-dioxide] | 96
10 | C[C@@H]1CN(c2nnc(-c3ccc(C(F)(F)F)cc3O)c3cccnc23)C[C@H](C)C1(F)F [Example 33, 2-(8-((cis)-4,4-difluoro-3,5-dimethylpiperidin-1-yl)pyrido[2,3-d]pyridazin-5-yl)-5-(trifluoromethyl)phenol] | 221
11 | Oc1cc(C(F)(F)F)ccc1-c1nnc(N2C[C@@H]3[C@H](C2)C3(F)F)c2ncccc12 [Example 41, 2-(8-(6,6-difluoro-3-azabicyclo[3.1.0]hexan-3-yl)pyrido[2,3-d]pyridazin-5-yl)-5-(trifluoromethyl)phenol] | 999
12 | Cc1cc(C(F)(F)F)ccc1-c1nnc([C@H]2C[C@@H](C)O[C@@H](C)C2)c2ccccc12 [Example 53, 1-((2R,4r,6S)-2,6-dimethyltetrahydro-2H-pyran-4-yl)-4-(2-methyl-4-(trifluoromethyl)phenyl)phthalazine] | 3970
13 | C[C@@H]1C[C@](O)(c2nnc(-c3ccc(C(F)(F)F)cc3O)c3cccnc23)C[C@H](C)O1 [Example 54, (2R,4s,6S)-4-(5-(2-hydroxy-4-(trifluoromethyl)phenyl)pyrido[2,3-d]-pyridazin-8-yl)-2,6-dimethyltetrahydro-2H-pyran-4-ol] | 1100

Further lines, results first:

Row | EC50 [nM] | SMILES
14 | 124 | C[C@]1(O)CCN(c2nnc(-c3ccc(C(F)(F)F)cc3O)c3cccnc23)C1 [Example 22, (S)-1-(5-(2-hydroxy-4-(trifluoromethyl)phenyl)pyrido[2,3-d]-pyridazin-8-yl)-3-methylpyrrolidin-3-ol]
15 | 5 | CN1CC[C@H]2CCN(c3nnc(-c4ccc(C(F)(F)F)cc4O)c4cccnc34)[C@H]2C1 [Example 23, 2-(8-((3aS,7aR)-6-methyloctahydro-1H-pyrrolo[2,3-c]pyridin-1-yl)pyrido[2,3-d]pyridazin-5-yl)-5-(trifluoromethyl)phenol]
16 | 148 | O=C1NC2(CCN(c3nnc(-c4ccc(C(F)(F)F)cc4O)c4cccnc34)CC2)CO1 [Example 25, 8-(5-(2-hydroxy-4-(trifluoromethyl)phenyl)pyrido [2,3-d]pyridazin-8-yl)-3-oxa-1,8-diazaspiro[4.5]decan-2-one]
17 | 1270 | Oc1cc(C(F)(F)F)ccc1-c1nnc(N2CCC3(CCCO3)CC2)c2ncccc12 [Example 30, 2-(8-(1-oxa-8-azaspiro[4.5]decan-8-yl)pyrido[2,3-d]pyridazin-5-yl)-5-(trifluoromethyl)phenol]
18 | 915 | Oc1cc(C(F)(F)F)ccc1-c1nnc(N2CCC3(CCOC3)CC2)c2ncccc12 [Example 31, 2-(8-(2-oxa-8-azaspiro[4.5]decan-8-yl)pyrido[2,3-d]pyridazin-5-yl)-5-(trifluoromethyl)phenol]
19 | 330 | O=C1COC2(CCN(c3nnc(-c4ccc(C(F)(F)F)cc4O)c4cccnc34)CC2)CN1 [Example 32, 9-(5-(2-hydroxy-4-(trifluoromethyl)phenyl)pyrido [2,3-d]pyridazin-8-yl)-1-oxa-4,9-diazaspiro[5.5]undecan-3-one]
20 | 1510 | CC(=O)N1CCCC12CCN(c1nnc(-c3ccc(C(F)(F)F)cc3O)c3cccnc13)CC2 [Example 34, 1-(8-(5-(2-hydroxy-4-(trifluoromethyl)phenyl)pyrido [2,3-d]pyridazin-8-yl)-1,8-diazaspiro[4.5]decan-1-yl)ethan-1-one]
21 | 420 | CC(=O)N1CCC2(CCN(c3nnc(-c4ccc(C(F)(F)F)cc4O)c4cccnc34)CC2)C1 [Example 35, 1-(8-(5-(2-hydroxy-4-(trifluoromethyl)phenyl)pyrido [2,3-d]pyridazin-8-yl)-2,8-diazaspiro[4.5]decan-2-yl)ethan-1-one]
22 | 742 | CN1CC2(CCN(c3nnc(-c4ccc(C(F)(F)F)cc4O)c4cccnc34)CC2)OC1=O [Example 36, 8-(5-(2-hydroxy-4-(trifluoro-methyl)phenyl)pyrido[2,3-d]-pyridazin-8-yl)-3-methyl-1-oxa-3,8-diazaspiro[4.5]decan-2-one]
23 | 1130 | CC1(C)CCOC12CCN(c1nnc(-c3ccc(C(F)(F)F)cc3O)c3cccnc13)CC2 [Example 37, 2-(8-(4,4-dimethyl-1-oxa-8-azaspiro[4.5]decan-8-yl)pyrido[2,3-d]pyridazin-5-yl)-5-(trifluoromethyl)phenol]
24 | 563 | CN1C(=O)CCC12CCN(c1nnc(-c3ccc(C(F)(F)F)cc3O)c3cccnc13)CC2 [Example 39, 8-(5-(2-hydroxy-4-(trifluoromethyl)phenyl)pyrido [2,3-d]pyridazin-8-yl)-1-methyl-1,8-diazaspiro[4.5]decan-2-one]
25 | 304 | O=C1NCC2(CCN(c3nnc(-c4ccc(C(F)(F)F)cc4O)c4cccnc34)CC2)O1 [Example 40, 8-(5-(2-hydroxy-4-(trifluoromethyl)phenyl)pyrido [2,3-d]pyridazin-8-yl)-1-oxa-3,8-diazaspiro[4.5]decan-2-one]
26 | 952 | O=C1CCC2(CCN(c3nnc(-c4ccc(C(F)(F)F)cc4O)c4cccnc34)CC2)O1 [Example 42, 8-(5-(2-hydroxy-4-(trifluoromethyl)phenyl)pyrido [2,3-d]pyridazin-8-yl)-1-oxa-8-azaspiro[4.5]decan-2-one]
27 | 1790 | CC(C)(O)[C@@H]1CCN(c2nnc(-c3ccc(C(F)(F)F)cc3O)c3cccnc23)C1 [Example 49, (R)-2-(8-(3-(2-hydroxypropan-2-yl)pyrrolidin-1-yl)pyrido[2,3-d]pyridazin-5-yl)-5-(trifluoromethyl)phenol]
28 | 1330 | CC(C)(O)[C@H]1CCN(c2nnc(-c3ccc(C(F)(F)F)cc3O)c3cccnc23)C1 [Example 50, (S)-2-(8-(3-(2-hydroxypropan-2-yl)pyrrolidin-1-yl)pyrido[2,3-d]pyridazin-5-yl)-5-(trifluoromethyl)phenol]
